Experimental data reported in the supplement of paper PMC10721915.
± gives the standard deviation of the averaged measurements.

Compound: COc1ccc([C@@H](O)c2cc(-c3ncnc4cc(N5CCOCC5)ccc34)c(F)cc2Cl)nn1 [peposertib]
Test: relative cell growth vs untreated control (GI, NCI-DTP normalisation with time-zero) (fraction of control growth); higher = more growth / less inhibition
Settings: treatment time: 120 h
Protocol: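 Cancer cell lines were treated with peposertib (DNA-PK inhibitor) combined with gamma ionizing radiation (0, 2, 3 or 6 Gy) for 120 h, starting 48 h after seeding. Read-out was sulforhodamine B total-protein staining, normalised to untreated control and time-zero wells (NCI-DTP GI convention).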

[1] = peposertib concentration 0.00488 µM, gamma irradiation dose (Gy): 0
[2] = peposertib concentration 0.0195 µM, gamma irradiation dose (Gy): 0
[3] = peposertib concentration 0.0781 µM, gamma irradiation dose (Gy): 0
[4] = peposertib concentration 0.313 µM, gamma irradiation dose (Gy): 0
[5] = peposertib concentration 1.25 µM, gamma irradiation dose (Gy): 0
[6] = peposertib concentration 5 µM, gamma irradiation dose (Gy): 0

Test System	relative cell growth [1]	relative cell growth (peposertib concentration 0.00488 µM, gamma irradiation dose (Gy): 3)	relative cell growth [2]	relative cell growth (peposertib concentration 0.0195 µM, gamma irradiation dose (Gy): 3)	relative cell growth [3]	relative cell growth (peposertib concentration 0.0781 µM, gamma irradiation dose (Gy): 3)	relative cell growth [4]	relative cell growth (peposertib concentration 0.313 µM, gamma irradiation dose (Gy): 3)	relative cell growth [5]	relative cell growth (peposertib concentration 1.25 µM, gamma irradiation dose (Gy): 3)	relative cell growth [6]	relative cell growth (peposertib concentration 5 µM, gamma irradiation dose (Gy): 3)
SW620	1.03 ± 0.033	0.3	1.01 ± 0.048	0.245	0.992 ± 0.054	0.131	0.94 ± 0.046	0.044	0.833 ± 0.15	0.0135	0.675 ± 0.2	0.0174
T24	1.01		0.992		0.979		0.927		0.838		0.748	
TE671	0.999		0.999		0.989		0.929		0.736		0.243	
THP1	0.988		0.968		0.887		0.721		0.436		0.148	
U2OS	1.05		1.04		1		0.966		0.815		0.529	
U87MG	1.23		1.06		1.02		0.733		0.257		0.116	
UMUC3	1.06		1.06		0.997		0.932		0.819		0.5	
WSUNHL	1.07		1.08		0.713		0.513		0.0836		-0.0127	
